Data taken from ChEMBL document CHEMBL1806450, “Synthesis of an aryloxy oxo pyrimidinone library that displays ALK-selective inhibition” (Bioorg Med Chem Lett, 2011).

Legend:
[1] = molecular target: ALK tyrosine kinase receptor (Homo sapiens, UniProt Q9UM73)
Description: Inhibition of 6xHis-tagged NPM-ALK using biotinylated-poly(GT) peptide as substrate after 60 mins

Insulin receptor = Insulin receptor (Homo sapiens, UniProt P06213)
Description: Inhibition of recombinant IRK using biotinylated-poly(GT) peptide as substrate after 60 mins

[2] = molecular target: Hepatocyte growth factor receptor (Homo sapiens, UniProt P08581)
Sequence of Hepatocyte growth factor receptor (P08581 whole entry): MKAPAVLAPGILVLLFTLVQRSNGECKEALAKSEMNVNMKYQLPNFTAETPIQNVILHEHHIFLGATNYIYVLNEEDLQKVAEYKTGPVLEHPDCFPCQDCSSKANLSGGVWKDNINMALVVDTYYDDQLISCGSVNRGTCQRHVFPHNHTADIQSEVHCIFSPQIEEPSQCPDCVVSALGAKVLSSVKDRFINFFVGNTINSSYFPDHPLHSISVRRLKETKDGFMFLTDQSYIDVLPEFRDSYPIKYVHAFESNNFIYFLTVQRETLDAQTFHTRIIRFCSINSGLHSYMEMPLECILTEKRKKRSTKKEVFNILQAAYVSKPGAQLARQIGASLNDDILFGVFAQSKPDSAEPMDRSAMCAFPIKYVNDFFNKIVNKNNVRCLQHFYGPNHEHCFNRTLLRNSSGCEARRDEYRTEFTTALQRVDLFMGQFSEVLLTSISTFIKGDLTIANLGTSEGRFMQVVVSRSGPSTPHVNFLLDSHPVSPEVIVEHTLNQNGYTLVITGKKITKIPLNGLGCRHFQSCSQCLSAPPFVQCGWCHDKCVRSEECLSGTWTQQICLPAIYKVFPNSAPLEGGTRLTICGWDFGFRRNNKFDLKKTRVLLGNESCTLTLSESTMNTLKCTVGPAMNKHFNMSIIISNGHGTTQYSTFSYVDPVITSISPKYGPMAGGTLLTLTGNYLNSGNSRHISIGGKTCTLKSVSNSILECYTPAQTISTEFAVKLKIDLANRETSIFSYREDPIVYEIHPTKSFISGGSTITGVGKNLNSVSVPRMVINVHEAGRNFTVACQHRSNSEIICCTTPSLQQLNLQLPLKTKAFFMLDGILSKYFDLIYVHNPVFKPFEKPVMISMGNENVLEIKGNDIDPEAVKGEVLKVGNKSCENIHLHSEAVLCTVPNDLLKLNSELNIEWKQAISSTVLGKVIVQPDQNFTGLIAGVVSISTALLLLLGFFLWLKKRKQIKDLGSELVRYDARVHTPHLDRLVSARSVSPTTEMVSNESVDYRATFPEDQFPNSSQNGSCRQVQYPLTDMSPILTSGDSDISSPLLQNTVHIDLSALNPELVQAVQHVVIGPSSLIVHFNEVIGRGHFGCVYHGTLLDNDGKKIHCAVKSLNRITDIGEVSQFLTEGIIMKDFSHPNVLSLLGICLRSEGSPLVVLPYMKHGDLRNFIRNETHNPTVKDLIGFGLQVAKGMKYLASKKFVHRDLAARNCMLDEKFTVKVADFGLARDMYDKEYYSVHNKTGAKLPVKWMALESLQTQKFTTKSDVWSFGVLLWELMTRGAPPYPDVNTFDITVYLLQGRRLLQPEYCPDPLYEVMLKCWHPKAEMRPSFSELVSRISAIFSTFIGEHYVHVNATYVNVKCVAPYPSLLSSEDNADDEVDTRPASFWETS
Description: Inhibition of recombinant MET using biotinylated-poly(GT) peptide as substrate after 60 mins

Sequence of Insulin receptor (P06213 28-758 limits assumed): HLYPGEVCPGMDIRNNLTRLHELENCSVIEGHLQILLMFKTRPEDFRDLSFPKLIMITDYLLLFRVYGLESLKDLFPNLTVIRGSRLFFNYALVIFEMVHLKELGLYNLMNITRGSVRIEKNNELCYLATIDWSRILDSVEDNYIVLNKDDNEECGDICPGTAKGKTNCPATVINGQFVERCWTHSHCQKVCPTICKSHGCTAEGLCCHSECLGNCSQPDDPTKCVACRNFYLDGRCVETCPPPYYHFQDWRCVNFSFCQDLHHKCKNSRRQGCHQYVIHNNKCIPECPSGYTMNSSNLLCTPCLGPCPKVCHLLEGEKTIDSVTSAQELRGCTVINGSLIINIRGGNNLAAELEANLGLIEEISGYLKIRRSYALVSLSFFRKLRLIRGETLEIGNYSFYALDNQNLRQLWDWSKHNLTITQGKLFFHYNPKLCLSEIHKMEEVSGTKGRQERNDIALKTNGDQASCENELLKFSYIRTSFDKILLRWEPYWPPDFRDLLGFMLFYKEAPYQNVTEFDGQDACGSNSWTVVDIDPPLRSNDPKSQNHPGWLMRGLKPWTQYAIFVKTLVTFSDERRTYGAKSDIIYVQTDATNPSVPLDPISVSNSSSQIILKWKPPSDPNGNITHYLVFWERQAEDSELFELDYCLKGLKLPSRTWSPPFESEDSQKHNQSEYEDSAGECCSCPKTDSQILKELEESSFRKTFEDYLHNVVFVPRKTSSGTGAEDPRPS
Sequence of Insulin receptor (P06213 763-1382 limits assumed): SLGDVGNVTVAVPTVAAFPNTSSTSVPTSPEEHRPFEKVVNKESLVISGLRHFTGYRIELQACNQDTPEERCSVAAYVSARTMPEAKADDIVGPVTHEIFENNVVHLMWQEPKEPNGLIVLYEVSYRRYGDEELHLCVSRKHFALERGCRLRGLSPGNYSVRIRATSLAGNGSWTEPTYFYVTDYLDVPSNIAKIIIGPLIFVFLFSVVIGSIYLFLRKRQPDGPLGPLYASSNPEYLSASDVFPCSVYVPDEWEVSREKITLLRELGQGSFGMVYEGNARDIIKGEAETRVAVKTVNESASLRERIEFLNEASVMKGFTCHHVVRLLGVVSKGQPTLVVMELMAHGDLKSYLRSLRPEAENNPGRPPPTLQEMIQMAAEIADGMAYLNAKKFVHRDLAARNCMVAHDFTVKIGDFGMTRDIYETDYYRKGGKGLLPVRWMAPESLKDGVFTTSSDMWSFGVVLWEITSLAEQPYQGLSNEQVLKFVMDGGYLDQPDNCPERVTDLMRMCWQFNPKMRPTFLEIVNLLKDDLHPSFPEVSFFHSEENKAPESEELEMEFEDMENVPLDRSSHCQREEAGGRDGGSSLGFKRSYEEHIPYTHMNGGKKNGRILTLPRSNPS
Sequence of ALK tyrosine kinase receptor (Q9UM73 whole entry): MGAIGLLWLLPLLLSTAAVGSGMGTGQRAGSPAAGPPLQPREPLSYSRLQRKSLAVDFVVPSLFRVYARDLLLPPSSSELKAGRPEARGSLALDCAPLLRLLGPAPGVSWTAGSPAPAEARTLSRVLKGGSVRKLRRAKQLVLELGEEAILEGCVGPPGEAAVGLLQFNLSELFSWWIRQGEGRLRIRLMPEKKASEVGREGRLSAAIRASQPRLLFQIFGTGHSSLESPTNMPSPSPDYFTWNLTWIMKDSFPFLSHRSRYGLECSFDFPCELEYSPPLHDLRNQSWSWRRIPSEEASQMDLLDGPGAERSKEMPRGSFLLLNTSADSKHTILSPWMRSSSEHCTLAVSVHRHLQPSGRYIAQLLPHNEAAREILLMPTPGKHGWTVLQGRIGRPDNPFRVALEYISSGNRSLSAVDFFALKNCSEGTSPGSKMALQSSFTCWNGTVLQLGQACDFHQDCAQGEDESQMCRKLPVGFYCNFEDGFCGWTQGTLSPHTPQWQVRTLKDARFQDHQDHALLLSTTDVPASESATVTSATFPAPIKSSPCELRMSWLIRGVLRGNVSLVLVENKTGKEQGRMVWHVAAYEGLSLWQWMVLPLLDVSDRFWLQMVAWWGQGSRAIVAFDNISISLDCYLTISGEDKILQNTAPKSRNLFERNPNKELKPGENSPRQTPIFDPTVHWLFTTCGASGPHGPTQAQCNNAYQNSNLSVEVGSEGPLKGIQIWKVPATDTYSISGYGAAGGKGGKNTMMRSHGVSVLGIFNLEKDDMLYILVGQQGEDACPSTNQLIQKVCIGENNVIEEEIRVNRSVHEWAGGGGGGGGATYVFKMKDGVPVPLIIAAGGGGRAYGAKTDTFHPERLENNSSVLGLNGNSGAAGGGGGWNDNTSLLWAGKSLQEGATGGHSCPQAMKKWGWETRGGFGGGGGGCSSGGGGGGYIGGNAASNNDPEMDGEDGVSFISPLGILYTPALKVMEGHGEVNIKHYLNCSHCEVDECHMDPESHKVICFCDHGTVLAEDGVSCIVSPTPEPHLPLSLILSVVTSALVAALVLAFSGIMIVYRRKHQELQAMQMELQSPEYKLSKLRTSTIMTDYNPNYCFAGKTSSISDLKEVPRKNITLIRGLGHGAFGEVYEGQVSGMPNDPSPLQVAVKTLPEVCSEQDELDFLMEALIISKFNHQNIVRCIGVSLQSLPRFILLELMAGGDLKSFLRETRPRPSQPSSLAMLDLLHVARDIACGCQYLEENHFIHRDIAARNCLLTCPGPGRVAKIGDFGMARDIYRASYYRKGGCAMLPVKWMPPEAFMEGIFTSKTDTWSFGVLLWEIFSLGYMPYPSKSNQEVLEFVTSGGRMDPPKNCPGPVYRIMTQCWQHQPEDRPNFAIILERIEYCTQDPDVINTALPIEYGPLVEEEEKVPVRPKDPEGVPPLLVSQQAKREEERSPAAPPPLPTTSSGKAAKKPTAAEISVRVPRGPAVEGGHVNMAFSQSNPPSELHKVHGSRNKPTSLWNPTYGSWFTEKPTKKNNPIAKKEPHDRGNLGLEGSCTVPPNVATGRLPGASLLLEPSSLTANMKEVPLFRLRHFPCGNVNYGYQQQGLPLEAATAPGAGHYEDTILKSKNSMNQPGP

Row | Compound | IC50 [1] [µM] | IC50 (Insulin receptor) [µM] | IC50 [2] [µM]
1 | COc1cccc(Oc2nc[nH]c(=O)c2/C=C/C(C)=O)c1 | > 40 | > 40 | > 40
2 | CCOC(=O)/C=C/c1c(Oc2cccc(OC)c2)nc[nH]c1=O | > 40 | > 40 | > 40
3 | CC(=O)/C=C/c1c(Oc2c(Cl)cccc2Cl)nc[nH]c1=O | > 40 | > 40 | > 40
4 | CCOC(=O)/C=C/c1c(Oc2c(Cl)cccc2Cl)nc[nH]c1=O | > 40 | > 40 | > 40
5 | CC(=O)/C=C/c1c(Oc2ccccc2C(C)=O)nc[nH]c1=O | > 40 | > 40 | > 40
6 | CC(=O)/C=C/c1c(Oc2ccc(C(C)=O)c(F)c2)nc[nH]c1=O | > 40 | > 40 | > 40
7 | CC(=O)/C=C/c1c(Oc2ccc(C)cc2C(C)=O)nc[nH]c1=O | > 40 | > 40 | > 40
8 | CC(=O)/C=C/c1c(Oc2c(C)cc(C(C)=O)cc2C)nc[nH]c1=O | > 40 | > 40 | > 40
9 | COC(=O)c1cc(Cl)ccc1Oc1nc[nH]c(=O)c1/C=C/C(C)=O | > 40 | > 40 | > 40
10 | CCCCCCOC(=O)c1ccccc1Oc1nc[nH]c(=O)c1/C=C/C(C)=O | > 40 | > 40 | > 40
11 | CCOC(=O)c1ccc(Oc2nc[nH]c(=O)c2/C=C/C(C)=O)cc1 | > 40 | > 40 | > 40
12 | COC(=O)c1cccc(Oc2nc[nH]c(=O)c2CCC(C)=O)c1 | > 40 | > 40 | > 40
13 | COC(=O)c1cccc(Oc2nc[nH]c(=O)c2C2CC(C)=NN2C)c1 (stereo not drawn) | > 40 | > 40 | > 40
14 | COC(=O)c1cccc(Oc2nc[nH]c(=O)c2C2CC(C)=NN2)c1 (stereo not drawn) | > 40 | > 40 | > 40
15 | COC(=O)c1cccc(Oc2nc[nH]c(=O)c2-c2ccncc2)c1 | > 40 | > 40 | > 40
16 | COC(=O)c1cccc(Oc2nc[nH]c(=O)c2-c2cccc(N)c2)c1 | > 40 | > 40 | > 40
17 | COC(=O)c1cccc(Oc2nc[nH]c(=O)c2-c2cccc(OC)c2)c1 | > 40 | > 40 | > 40
18 | COC(=O)c1cccc(Oc2nc[nH]c(=O)c2-c2ccccc2)c1 | > 40 | > 40 | > 40
19 | COC(=O)c1cccc(Oc2nc[nH]c(=O)c2-c2cccc(C)c2)c1 | > 40 | > 40 | > 40

Continued, values first:

Row | IC50 [1] [µM] | IC50 (Insulin receptor) [µM] | IC50 [2] [µM] | Compound
20 | 9 | > 40 | > 40 | COC(=O)c1cccc(Oc2nc[nH]c(=O)c2C2CC(C)=NN2C(C)=O)c1 (stereo not drawn)
21 | 3.03 | > 40 | 4.01 | COC(=O)c1cccc(Oc2nc[nH]c(=O)c2/C=C/C(C)=O)c1
22 | > 40 | > 40 | > 40 | CCOC(=O)/C=C/c1c(Oc2cccc(C(=O)OC)c2)nc[nH]c1=O
23 | > 40 | > 40 | > 40 | CC(=O)/C=C/c1c(Oc2ccc(C)cc2)nc[nH]c1=O
24 | > 40 | > 40 | > 40 | CCOC(=O)/C=C/c1c(Oc2ccc(C)cc2)nc[nH]c1=O
25 | > 40 | > 40 | > 40 | CC(=O)/C=C/c1c(Oc2ccc(C(C)(C)C)cc2)nc[nH]c1=O
26 | > 40 | > 40 | > 40 | CCOC(=O)/C=C/c1c(Oc2ccc(C(C)(C)C)cc2)nc[nH]c1=O
27 | > 40 | > 40 | > 40 | CC(=O)/C=C/c1c(Oc2ccccc2Cl)nc[nH]c1=O
28 | > 40 | > 40 | > 40 | CCOC(=O)/C=C/c1c(Oc2ccccc2Cl)nc[nH]c1=O
29 | > 40 | > 40 | > 40 | CC(=O)/C=C/c1c(Oc2ccc(F)cc2)nc[nH]c1=O
30 | > 40 | > 40 | > 40 | CCOC(=O)/C=C/c1c(Oc2ccc(F)cc2)nc[nH]c1=O
31 | > 40 | > 40 | > 40 | COC(=O)c1cc(OC)ccc1Oc1nc[nH]c(=O)c1/C=C/C(C)=O
32 | > 40 | > 40 | > 40 | CCOC(=O)/C=C/c1c(Oc2ccc(OC)cc2C(=O)OC)nc[nH]c1=O
33 | > 40 | > 40 | > 40 | COc1cccc(OC)c1Oc1nc[nH]c(=O)c1/C=C/C(C)=O
34 | > 40 | > 40 | > 40 | CCOC(=O)/C=C/c1c(Oc2c(OC)cccc2OC)nc[nH]c1=O
35 | > 40 | > 40 | > 40 | CC(=O)/C=C/c1c(Oc2cccc(C#N)c2)nc[nH]c1=O
36 | > 40 | > 40 | > 40 | CCOC(=O)/C=C/c1c(Oc2cccc(C#N)c2)nc[nH]c1=O
37 | > 40 | > 40 | > 40 | COc1cc(Cl)ccc1Oc1nc[nH]c(=O)c1/C=C/C(C)=O
38 | > 40 | > 40 | > 40 | CCOC(=O)/C=C/c1c(Oc2ccc(Cl)cc2OC)nc[nH]c1=O
39 | 6.64 | > 40 | > 40 | CC(=O)/C=C/c1c(Oc2ccc(NC(C)=O)cc2)nc[nH]c1=O
40 | 6.25 | > 40 | > 40 | CC(=O)/C=C/c1c(Oc2cccc(C(C)=O)c2)nc[nH]c1=O
41 | 7.57 | > 40 | > 40 | CC(=O)/C=C/c1c(Oc2ccc(O)cc2)nc[nH]c1=O
42 | 6.91 | > 40 | > 40 | CC(=O)/C=C/c1c(Oc2ccc(C#N)cc2)nc[nH]c1=O
43 | 7.54 | > 40 | > 40 | COc1cc(Oc2nc[nH]c(=O)c2/C=C/C(C)=O)c(C(C)=O)cc1OC
44 | 10.2 | > 40 | > 40 | COC(=O)c1ccc(OC)cc1Oc1nc[nH]c(=O)c1/C=C/C(C)=O
45 | 7.54 | > 40 | > 40 | CCOC(=O)c1ccccc1Oc1nc[nH]c(=O)c1/C=C/C(C)=O
46 | 9.87 | > 40 | > 40 | CC(=O)/C=C/c1c(Oc2cc(C(F)(F)F)ccc2Cl)nc[nH]c1=O
